In patent publication EP4745135A1 (Gluetacs Therapeutics (Shanghai) Co., Ltd., priority 2023, dated 2025):

Key:
WEE1 = molecular target: T1, WEE1 (Homo sapiens, UniProt P30291+Q96SW2); assay: Western blot, degradation of substrate protein in hPBMCs; format: cell-based
T1 construct: effects of the compounds of the present disclosure on the expression of target proteins in cells; endogenous in cells; host or cells: human PBMCs (Milecell Biotechnologies)

IKZF3 = molecular target: T2, IKZF3 (Homo sapiens, UniProt Q96SW2+Q9UKT9); assay: as above; format: cell-based
T2 construct: effects of the compounds of the present disclosure on the expression of target proteins in cells; endogenous in cells; host or cells: human PBMCs (Milecell Biotechnologies)

IKZF2 = molecular target: T3, IKZF2 (Homo sapiens, UniProt Q96SW2+Q9UKS7); assay: as above; format: cell-based
T3 construct: effects of the compounds of the present disclosure on the expression of target proteins in cells; endogenous in cells; host or cells: human PBMCs (Milecell Biotechnologies)

IKZF1 = molecular target: T4, IKZF1 (Homo sapiens, UniProt Q13422+Q96SW2); assay: as above; format: cell-based
T4 construct: effects of the compounds of the present disclosure on the expression of target proteins in cells; endogenous in cells; host or cells: human PBMCs (Milecell Biotechnologies)

CK1α = molecular target: T5, CK1α (Homo sapiens, UniProt P48729+Q96SW2); assay: as above; format: cell-based
T5 construct: effects of the compounds of the present disclosure on the expression of target proteins in cells; endogenous in cells; host or cells: human PBMCs (Milecell Biotechnologies)

[1] = test system: Human myeloid monocytic leukemia cell (MV-4-11); assay: Tumor cell proliferation inhibition (CellTiter-Meiluncell luminescent cell viability assay); conditions: MV4-11, 96 h; for inhibition at 0.01 µM: read-out: Inhibition Rate at 10 nM (%); for inhibition at 0.5 µM: read-out: Inhibition Rate at 500 nM (%)
[2] = molecular target: T6, human Cereblon WT GST-tagged protein (Homo sapiens, UniProt Q96SW2); assay: CRBN-binding affinity, HTRF (CEREBLON BINDING kit); conditions: for inhibition at 0.5 µM: read-out: Inhibition Rate at 0.5 µM (%); for inhibition at 2 µM: read-out: Inhibition Rate at 2 µM (%)
T6 construct: purchased CISBIO 64BDCRBNPEH

GSPT1 = assay: Western blot, degradation of substrate protein in hPBMCs; format: cell-based, Human
[3] = test system: Human multiple myeloma cell (MM.1S); assay: Tumor cell proliferation inhibition (CellTiter-Meiluncell luminescent cell viability assay); conditions: Homo sapiens, MM1.S, 96 h; for inhibition at 0.01 µM: read-out: Inhibition Rate at 10 nM (%); for inhibition at 0.5 µM: read-out: Inhibition Rate at 500 nM (%)
[4] = Western blot, 24 hours of compound treatment, compounds tested at 50 nM and 500 nM (concentration for the table not stated)
[5] = 24 hours treatment, compounds at 50 nM and 500 nM (concentration behind the class not stated)

T2 sequence (Q9UKT9 whole entry): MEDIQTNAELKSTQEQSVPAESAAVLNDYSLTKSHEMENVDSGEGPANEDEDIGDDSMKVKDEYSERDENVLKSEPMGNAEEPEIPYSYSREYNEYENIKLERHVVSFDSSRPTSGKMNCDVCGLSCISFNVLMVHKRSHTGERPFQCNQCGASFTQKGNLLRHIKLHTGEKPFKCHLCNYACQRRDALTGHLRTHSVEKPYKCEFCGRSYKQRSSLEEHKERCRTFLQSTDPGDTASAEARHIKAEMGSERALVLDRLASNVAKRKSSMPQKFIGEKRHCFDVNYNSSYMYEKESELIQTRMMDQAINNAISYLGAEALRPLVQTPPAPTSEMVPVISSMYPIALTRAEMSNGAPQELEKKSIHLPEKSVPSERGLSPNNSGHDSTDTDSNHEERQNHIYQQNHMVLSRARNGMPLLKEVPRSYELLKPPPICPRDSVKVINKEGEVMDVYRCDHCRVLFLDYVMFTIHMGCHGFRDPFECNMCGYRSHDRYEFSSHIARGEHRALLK
T2 sequence (Q96SW2 whole entry): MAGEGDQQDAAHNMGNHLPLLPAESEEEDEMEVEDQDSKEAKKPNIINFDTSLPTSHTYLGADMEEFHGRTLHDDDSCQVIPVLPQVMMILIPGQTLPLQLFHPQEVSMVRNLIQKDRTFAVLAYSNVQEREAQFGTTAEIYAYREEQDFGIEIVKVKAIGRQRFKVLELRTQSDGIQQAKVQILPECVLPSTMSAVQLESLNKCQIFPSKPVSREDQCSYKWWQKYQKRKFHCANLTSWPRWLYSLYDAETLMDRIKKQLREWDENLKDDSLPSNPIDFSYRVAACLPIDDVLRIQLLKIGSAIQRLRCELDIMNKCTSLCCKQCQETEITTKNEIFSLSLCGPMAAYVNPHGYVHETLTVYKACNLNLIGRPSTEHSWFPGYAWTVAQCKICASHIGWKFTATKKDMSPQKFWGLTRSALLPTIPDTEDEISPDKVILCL
T2 sequence (Q16531 whole entry partner): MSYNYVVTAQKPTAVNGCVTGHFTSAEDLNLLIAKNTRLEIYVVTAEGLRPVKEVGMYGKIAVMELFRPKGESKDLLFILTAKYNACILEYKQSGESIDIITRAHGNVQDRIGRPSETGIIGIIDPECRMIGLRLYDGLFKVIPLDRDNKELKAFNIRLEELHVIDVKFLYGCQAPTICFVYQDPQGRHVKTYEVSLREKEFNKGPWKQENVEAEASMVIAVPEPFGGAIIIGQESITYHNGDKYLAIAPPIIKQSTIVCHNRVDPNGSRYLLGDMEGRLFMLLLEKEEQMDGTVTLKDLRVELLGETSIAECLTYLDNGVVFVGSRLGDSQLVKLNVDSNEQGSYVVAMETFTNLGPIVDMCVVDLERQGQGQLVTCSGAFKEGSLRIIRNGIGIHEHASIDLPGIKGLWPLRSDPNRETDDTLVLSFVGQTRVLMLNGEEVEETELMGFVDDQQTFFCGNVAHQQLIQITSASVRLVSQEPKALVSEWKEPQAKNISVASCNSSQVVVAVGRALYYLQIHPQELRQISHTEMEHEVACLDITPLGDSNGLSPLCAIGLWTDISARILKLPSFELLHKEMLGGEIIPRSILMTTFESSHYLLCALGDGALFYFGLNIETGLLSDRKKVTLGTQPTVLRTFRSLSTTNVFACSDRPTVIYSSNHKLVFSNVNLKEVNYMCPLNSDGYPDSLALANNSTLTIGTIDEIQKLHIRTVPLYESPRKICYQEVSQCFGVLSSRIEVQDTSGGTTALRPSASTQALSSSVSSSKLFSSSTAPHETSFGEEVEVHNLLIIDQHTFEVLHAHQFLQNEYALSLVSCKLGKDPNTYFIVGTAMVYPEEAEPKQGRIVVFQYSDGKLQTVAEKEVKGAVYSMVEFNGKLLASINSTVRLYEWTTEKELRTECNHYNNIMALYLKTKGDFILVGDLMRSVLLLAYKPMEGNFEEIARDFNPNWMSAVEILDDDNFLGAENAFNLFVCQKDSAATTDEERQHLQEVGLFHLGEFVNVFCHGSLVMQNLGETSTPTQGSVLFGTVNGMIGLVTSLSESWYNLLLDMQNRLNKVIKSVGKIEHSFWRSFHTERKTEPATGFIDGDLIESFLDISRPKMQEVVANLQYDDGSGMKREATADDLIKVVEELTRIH
T1 sequence (P30291 whole entry): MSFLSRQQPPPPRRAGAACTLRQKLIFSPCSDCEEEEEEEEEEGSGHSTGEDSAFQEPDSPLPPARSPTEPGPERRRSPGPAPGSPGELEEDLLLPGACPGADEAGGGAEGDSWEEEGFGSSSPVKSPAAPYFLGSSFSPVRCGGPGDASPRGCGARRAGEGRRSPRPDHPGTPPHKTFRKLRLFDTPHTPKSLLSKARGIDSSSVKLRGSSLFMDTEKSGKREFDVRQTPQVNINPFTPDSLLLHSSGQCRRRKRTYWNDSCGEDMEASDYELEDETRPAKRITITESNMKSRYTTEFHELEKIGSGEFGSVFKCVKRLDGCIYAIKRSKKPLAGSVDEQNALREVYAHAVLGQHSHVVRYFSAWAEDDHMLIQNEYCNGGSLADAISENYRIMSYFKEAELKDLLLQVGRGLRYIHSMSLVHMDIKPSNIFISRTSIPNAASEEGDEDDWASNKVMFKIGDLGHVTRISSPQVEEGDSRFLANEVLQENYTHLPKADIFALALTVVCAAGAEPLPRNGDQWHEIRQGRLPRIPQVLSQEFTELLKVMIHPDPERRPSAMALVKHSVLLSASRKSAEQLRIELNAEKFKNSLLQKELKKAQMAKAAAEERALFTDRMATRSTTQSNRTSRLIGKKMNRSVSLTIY
T1 sequence (Q96SW2 whole entry): as the sequence (Q96SW2 whole entry) above
T1 sequence (Q16531 whole entry partner): as the sequence (Q16531 whole entry partner) above
T3 sequence (Q9UKS7 whole entry): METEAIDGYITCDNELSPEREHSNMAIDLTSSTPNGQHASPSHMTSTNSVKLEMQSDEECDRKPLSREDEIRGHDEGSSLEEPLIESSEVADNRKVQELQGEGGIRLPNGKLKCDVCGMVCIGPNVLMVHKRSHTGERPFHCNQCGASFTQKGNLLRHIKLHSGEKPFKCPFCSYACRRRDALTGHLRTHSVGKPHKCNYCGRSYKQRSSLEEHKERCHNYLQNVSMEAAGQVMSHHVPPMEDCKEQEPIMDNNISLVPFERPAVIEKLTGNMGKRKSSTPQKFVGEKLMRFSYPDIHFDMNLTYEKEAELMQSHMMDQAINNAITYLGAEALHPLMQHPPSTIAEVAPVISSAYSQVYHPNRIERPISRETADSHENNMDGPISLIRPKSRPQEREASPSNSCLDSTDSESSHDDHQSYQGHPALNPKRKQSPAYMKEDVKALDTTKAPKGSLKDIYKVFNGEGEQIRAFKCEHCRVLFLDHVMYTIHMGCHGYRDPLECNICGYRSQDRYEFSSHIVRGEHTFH
T3 sequence (Q96SW2 whole entry): as the sequence (Q96SW2 whole entry) above
T3 sequence (Q16531 whole entry partner): as the sequence (Q16531 whole entry partner) above
T6 sequence (Q96SW2 whole entry): as the sequence (Q96SW2 whole entry) above
T5 sequence (P48729 whole entry): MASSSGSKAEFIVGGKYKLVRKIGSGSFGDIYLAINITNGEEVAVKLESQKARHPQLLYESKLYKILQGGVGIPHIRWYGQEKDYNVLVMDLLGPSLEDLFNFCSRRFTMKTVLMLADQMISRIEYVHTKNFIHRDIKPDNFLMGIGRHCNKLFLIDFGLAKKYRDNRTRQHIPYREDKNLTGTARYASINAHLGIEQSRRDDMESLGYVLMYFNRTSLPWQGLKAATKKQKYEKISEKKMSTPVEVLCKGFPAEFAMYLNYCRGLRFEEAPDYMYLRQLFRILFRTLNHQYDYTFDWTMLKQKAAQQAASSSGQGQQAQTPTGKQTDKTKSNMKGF
T5 sequence (Q96SW2 whole entry): as the sequence (Q96SW2 whole entry) above
T5 sequence (Q16531 whole entry partner): as the sequence (Q16531 whole entry partner) above
T4 sequence (Q13422 whole entry): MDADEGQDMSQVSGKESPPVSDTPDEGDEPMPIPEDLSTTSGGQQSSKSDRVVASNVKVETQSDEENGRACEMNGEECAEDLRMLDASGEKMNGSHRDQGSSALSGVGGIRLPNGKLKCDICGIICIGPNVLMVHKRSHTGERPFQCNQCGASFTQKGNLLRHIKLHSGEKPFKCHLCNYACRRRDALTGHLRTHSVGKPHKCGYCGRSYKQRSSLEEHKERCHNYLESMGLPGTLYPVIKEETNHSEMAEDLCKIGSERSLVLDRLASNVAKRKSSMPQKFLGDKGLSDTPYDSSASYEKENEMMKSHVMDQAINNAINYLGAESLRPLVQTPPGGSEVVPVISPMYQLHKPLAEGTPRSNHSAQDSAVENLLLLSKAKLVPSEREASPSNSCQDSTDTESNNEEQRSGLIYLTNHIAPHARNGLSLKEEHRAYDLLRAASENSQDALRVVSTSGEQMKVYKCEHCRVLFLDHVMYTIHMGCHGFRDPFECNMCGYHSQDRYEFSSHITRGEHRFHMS
T4 sequence (Q96SW2 whole entry): as the sequence (Q96SW2 whole entry) above
T4 sequence (Q16531 whole entry partner): as the sequence (Q16531 whole entry partner) above

Structure (SMILES)	Wee1 substrate protein remaining % (WEE1; [4])	IKZF3 substrate protein remaining % (IKZF3; [4])	IKZF2 substrate protein remaining % (IKZF2; [4])	IKZF 1 substrate protein remaining % (IKZF1; [4])	CK1α substrate protein remaining % (CK1α; [4])	inhibition at 0.01 µM [1]	inhibition at 0.5 µM [1]	inhibition at 0.5 µM [2]	inhibition at 2 µM [2]	GSPT1 substrate protein remaining % (GSPT1; [4])	inhibition at 0.01 µM [3]	inhibition at 0.5 µM [3]	Wee1 substrate protein remaining % (WEE1; [5])	IKZF3 substrate protein remaining % (IKZF3; [5])	IKZF2 substrate protein remaining % (IKZF2; [5])	IKZF 1 substrate protein remaining % (IKZF1; [5])	CK1α substrate protein remaining % (CK1α; [5])	GSPT1 substrate protein remaining % (GSPT1; [5])
O=C1CCC(N2Cc3c(CN4CCN(c5ccc(C(F)(F)F)cc5)CC4)cccc3C2=S)C(=O)N1 (stereo not shown) [GT-08262, 3-(1-thioxo-4-((4-(4-(trifluoromethyl)phenyl)piperazin-1-yl)methyl)isoindolin-2-yl)piperidine-2,6-dione]	A (0% ≤ substrate protein remaining % ≤ 80%)	B (80%< substrate protein remaining %≤ 100%)	B (80%< substrate protein remaining %≤ 100%)	B (80%< substrate protein remaining %≤ 100%)	A (0% ≤ substrate protein remaining % ≤ 80%)	25 to 30%	40 to 60%	30 to 40%	60 to 80%	A (0% ≤ substrate protein remaining % ≤ 80%)								
CC1(C)CCC(CN2CCN(Cc3cccc4c3CN(C3CCC(=O)NC3=O)C4=S)CC2)=C(c2ccc(Cl)cc2)C1 (stereo not shown) [GT-08303, 3-(4-((4-((4'-chloro-5,5-dimethyl-3,4,5,6-tetrahydro-[1,1'-biphenyl]-2-yl)methyl)piperazin-1-yl)methyl)-1-thioxoisoindolin-2-yl)piperidine-2,6-dione]						40 to 60%	40 to 60%	30 to 40%	60 to 80%									
O=C1CCC(N2Cc3cc(CN4CCC(c5ccnc(F)c5F)CC4)ccc3C2=S)C(=O)N1 (stereo not shown) [GT-08473, 3-(5-((4-(2,3-difluoropyridin-4-yl)piperidin-1-yl)methyl)-1-thioxoisoindolin-2-yl)piperidine-2,6-dione]						40 to 60%	40 to 60%	60 to 80%	80 to 100%									
O=C1CCC(N2Cc3c(CN4CCC(c5ccccc5)CC4)cccc3C2=S)C(=O)N1 (stereo not shown) [GT-08506, 3-(4-((4-phenylpiperidin-1-yl)methyl)-1-thioxoisoindolin-2-yl)piperidine-2,6-dione]	A (0% ≤ substrate protein remaining % ≤ 80%)	A (0% ≤ substrate protein remaining % ≤ 80%)	A (0% ≤ substrate protein remaining % ≤ 80%)	B (80%< substrate protein remaining %≤ 100%)	B (80%< substrate protein remaining %≤ 100%)	30 to 40%	40 to 60%			A (0% ≤ substrate protein remaining % ≤ 80%)								
O=C1CCC(N2Cc3cc(CN4CCC(c5cccc(C(F)(F)F)c5)CC4)ccc3C2=S)C(=O)N1 (stereo not shown) [GT-08623, 3-(1-thioxo-5-((4-(3-(trifluoromethyl)phenyl)piperidin-1-yl)methyl)isoindolin-2-yl)piperidine-2,6-dione]	B (80%< substrate protein remaining %≤ 100%)	B (80%< substrate protein remaining %≤ 100%)	A (0% ≤ substrate protein remaining % ≤ 80%)	B (80%< substrate protein remaining %≤ 100%)	B (80%< substrate protein remaining %≤ 100%)			40 to 53%	80 to 100%	B (80%< substrate protein remaining %≤ 100%)	30 to 40%	40 to 50%						
O=C1CCC(N2Cc3c(CN4CCN(c5cc(Cl)ccn5)CC4)cccc3C2=S)C(=O)N1 (stereo not shown) [GT-08695, 3-(4-((4-(4-chloropyridin-2-yl)piperazin-1-yl)methyl)-1-thioxoisoindolin-2-yl)piperidine-2,6-dione]	A (0% ≤ substrate protein remaining % ≤ 80%)	B (80%< substrate protein remaining %≤ 100%)	B (80%< substrate protein remaining %≤ 100%)	B (80%< substrate protein remaining %≤ 100%)	B (80%< substrate protein remaining %≤ 100%)			60 to 80%	80 to 100%	B (80%< substrate protein remaining %≤ 100%)	20 to 30%	40 to 50%						
Cc1cc2c(C3=CCN(Cc4cccc5c4CN(C4CCC(=O)NC4=O)C5=S)CC3)ncnc2s1 (stereo not shown) [GT-08947, 3-(4-((4-(6-methylthieno[2,3-d]pyrimidin-4-yl)-3,6-dihydropyridin-1(2H)-yl)methyl)-1-thioxoisoindolin-2-yl)piperidine-2,6-dione]								60 to 80%	80 to 100%		30 to 40%	40 to 50%	A (0% ≤ substrate protein remaining % ≤ 80%)	B (80%< substrate protein remaining %≤ 100%)	B (80%< substrate protein remaining %≤ 100%)	B (80%< substrate protein remaining %≤ 100%)	B (80%< substrate protein remaining %≤ 100%)	B (80%< substrate protein remaining %≤ 100%)
O=C1CCC(N2Cc3c(CN4CC=C(c5ncnc6sc7c(c56)CCCC7)CC4)cccc3C2=S)C(=O)N1 (stereo not shown) [GT-08962, 3-(4-((4-(5,6,7,8-tetrahydrobenzo[4,5]thieno[2,3-d]pyrimidin-4-yl)-3,6-dihydropyridin-1(2H)-yl)methyl)-1-thioxoisoindolin-2-yl)piperidine-2,6-dione]								40 to 53%	80 to 100%		30 to 40%	40 to 50%	A (0% ≤ substrate protein remaining % ≤ 80%)	B (80%< substrate protein remaining %≤ 100%)	B (80%< substrate protein remaining %≤ 100%)	B (80%< substrate protein remaining %≤ 100%)	B (80%< substrate protein remaining %≤ 100%)	A (0% ≤ substrate protein remaining % ≤ 80%)
O=C1CCC(N2Cc3cc(CN4CCN(c5ncc(Cl)cc5Cl)CC4)ccc3C2=S)C(=O)N1 (stereo not shown) [GT-09226, 3-(5-((4-(3,5-dichloropyridin-2-yl)piperazin-1-yl)methyl)-1-thioxoisoindolin-2-yl)piperidine-2,6-dione]						30 to 40%	40 to 60%	60 to 80%	80 to 100%									
O=C1CCC(N2Cc3cc(CN4CCN(c5cccnc5)CC4)ccc3C2=S)C(=O)N1 (stereo not shown) [GT-09229, 3-(5-((4-(pyridin-3-yl)piperazin-1-yl)methyl)-1-thioxoisoindolin-2-yl)piperidine-2,6-dione]						40 to 60%	40 to 60%	60 to 80%	80 to 100%									
O=C1CCC(N2Cc3cc(CN4CCN(c5ccnc(F)c5F)CC4)ccc3C2=S)C(=O)N1 (stereo not shown) [GT-09242, 3-(5-((4-(2,3-difluoropyridin-4-yl)piperazin-1-yl)methyl)-1-thioxoisoindolin-2-yl)piperidine-2,6-dione]						60 to 80%	30 to 40%	60 to 80%	80 to 100%									
Cc1csc2ncnc(N3CCN(Cc4ccc5c(c4)CN(C4CCC(=O)NC4=O)C5=S)CC3)c12 (stereo not shown) [GT-09281, 3-(5-((4-(5-methylthieno[2,3-d]pyrimidin-4-yl)piperazin-1-yl)methyl)-1-thioxoisoindolin-2-yl)piperidine-2,6-dione]						25 to 30%	40 to 60%	80 to 100%	80 to 100%									
